{
  "source": "patent US20230190787A1",
  "about": "“SYSTEM AND METHOD FOR TREATING CARDIAC TOXICITY VIA GUT MICROBIOTA” (priority 2022, published 2023)",
  "type_in_all_cases": "in vivo, Wistar albino rats",
  "key": {"heart": {"test_system": "heart", "experiment": "Histopathological analysis of heart (H&E)", "conditions": "DC group: Dox 1 mg/kg i.p., normal drinking water", "method": "(§1) All the animals are randomly divided into 4 groups with six animals in each: 1) Normal control (NC), fed with standard semi purified diet along with normal drinking water, 2) Zam control (ZC) fed with standard semi purified diet along with Zam water p.o at libitum, 3) Doxorubicin or Dox control (DC), animals are injected with Dox (1 mg/kg bw) i.p. on first day of protocol fed with standard semi purified diet along with normal drinking water and 4) Dox+Zam (DZ) group injected with Dox (1 mg/kg bw) i.p. on first day of protocol, and treated with Zam water p.o at libitum, for 28 days. All the animals are on semi purified diet throughout the study period. Body weight of rats are recorded weekly and consumption of food and water is measured daily basis.\n(§2) Physiological and behavioural changes are monitored in experimental rats for entire period of protocol. The protocol is terminated on 29th day, animals are sedated with diethyl ether for further process of organ harvesting and blood collection. Abdominal artery, punctured and blood is collected in centrifugal tubes approximately 3 ml/100 g body weight, allowed to clot at laboratory temperature for 30 minutes, centrifuged at 4° C. for 15 minutes at 4500 rpm. The supernatant serum, transferred to 1.5 ml tubes and kept at −80° C. for further analysis. […]"}, "Gut microbiota": {"test_system": "Gut microbiota", "experiment": "Gut microbiota analysis: 16S metagenomic analysis of stool DNA", "conditions": "DC group: Dox 1 mg/kg i.p., normal drinking water", "method": "All the animals are randomly divided into 4 groups with six animals in each: 1) Normal control (NC), fed with standard semi purified diet along with normal drinking water, 2) Zam control (ZC) fed with standard semi purified diet along with Zam water p.o at libitum, 3) Doxorubicin or Dox control (DC), animals are injected with Dox (1 mg/kg bw) i.p. on first day of protocol fed with standard semi purified diet along with normal drinking water and 4) Dox+Zam (DZ) group injected with Dox (1 mg/kg bw) i.p. on first day of protocol, and treated with Zam water p.o at libitum, for 28 days. All the animals are on semi purified diet throughout the study period. Body weight of rats are recorded weekly and consumption of food and water is measured daily basis. Stool samples of rats are used to isolate the DNA by […] kit as per manufacturer's instructions. Briefly 250-300 mg of stool samples collected from lower intestine, in 2 ml tube weighted and thawed on ice. ASL buffer (1.5 ml) is added, vortexed for 3 minutes followed by incubation at 80° C. for 15 minutes. The incubated tubes are tapped every four minute and centrifuge at 14000 rpm for 15 minutes at room temperature. EX tablet is added to 1.5-2.0 ml of supernatant, followed by centrifugation for 5 minutes at 15000 rpm. The procedure continued with the addition of proteinase K (15 μl) and AL buffer, incubated for 10 minutes at 70° C. Approximately 300 μl of absolute alcohol or ethanol is added, centrifuged for 1 minute at 12000 rpm with addition of 500 μl of AW1 buffer to column above and centrifuge at 14000 rpm for 1 minute. The filtrate in collection tube is discarded, finally DNA is eluted and is evaluated on 1% agarose gel. The isolated sample of DNA is forwarded for 16S metagenomic analysis."}, "[1]": {"test_system": "Dox induced cardiac toxicity/remodeling", "experiment": "Blood analysis: serum biochemical levels (auto analyzer/ELISA kits) in doxorubicin induced cardiac toxicity/remodelling rats", "text": "Zinc Quantification, rat high sensitivity C-Reactive Protein, Fibrinogen invitro, IL-6, IL-10, Renin, Ang II, and CKMB Enzyme linked Immunosorbent Assay (ELISA) rat kits are procured from Abcam, Cambridge, United Kingdom.\nSufficient experimental animals Wistar albino rats approximately average weight of 170±20 g are obtained. The protocol is approved by Institutional Animal Ethical Committee, all animals are acclimatized for 7 days standard laboratory condition of 12-hr light/dark cycle, maintained at temperature of 22±2° C. with relative humidity of 50±5% in department of Biochemistry, Faculty of Science.\nas §1\nPhysiological and behavioural changes are monitored in experimental rats for entire period of protocol. The protocol is terminated on 29th day, animals are sedated with diethyl ether for further process of organ harvesting and blood collection. Abdominal artery, punctured and blood is collected in centrifugal tubes approximately 3 ml/100 g body weight, allowed to clot at laboratory temperature for 30 minutes, centrifuged at 4° C. for 15 minutes at 4500 rpm. The supernatant serum, transferred to 1.5 ml tubes and kept at −80° C. for further analysis. Harvested heart and kidneys are weight, preserved in 10% phosphate buffered formaldehyde for histopathological analysis.\nThe serum biochemical levels of Zinc, Fibrinogen, Renin, IL-10,11-6, CRP, Ang II, and CKMB are analyzed by standard auto analyzer kits-Zinc quantification kit, Rat Fibrinogen ELISA kit, Rat Renin ELISA kit, IL-10 ELISA kit, I1-6 ELISA kit, CRP ELISA kit, Ang II ELISA kit, and CKMB ELISA kit from Abcam Cambridge, United Kingdom."}, "kidneys": {"test_system": "kidneys", "experiment": "Histopathological analysis of kidney (H&E)", "conditions": "DC group: Dox 1 mg/kg i.p., normal drinking water", "method": "as §1, §2"}, "[2]": {"conditions": "DC group: Dox 1 mg/kg i.p., normal drinking water"}},
  "data": [
    {"smiles": "COc1cccc2c1C(=O)c1c(O)c3c(c(O)c1C2=O)C[C@@](O)(C(=O)CO)C[C@@H]3O[C@H]1C[C@H](N)[C@H](O)[C@H](C)O1", "note": "[Doxorubicin]", "values": [
      {"measurement": "histopathological evaluation of cardiac tissue", "setting": "heart", "result": "focal areas of myocardial cell degeneration with increased intracellular spaces, high fat deposits, inflammatory cell infiltration and disrupted tissue orientation"},
      {"measurement": "Firmicutes population", "setting": "Gut microbiota", "result": 33, "unit": "%"},
      {"measurement": "abundance of Bacteroidetes", "setting": "Gut microbiota", "result": 34, "unit": "%"},
      {"measurement": "abundance of Muribaculaceae", "setting": "Gut microbiota", "result": 26, "unit": "%"},
      {"measurement": "abundance of Proteobacteria", "setting": "Gut microbiota", "result": 17, "unit": "%"},
      {"measurement": "abundance of Romboutsia", "setting": "Gut microbiota", "result": 2, "unit": "%"},
      {"measurement": "Plasma CRP level", "setting": "[1]; DC group: Dox 1 mg/kg bw i.p. day 1, normal drinking water", "result": "13.40 ± 2.66", "unit": "mg/dL"},
      {"measurement": "serum Zinc level", "setting": "[1]; DC group: Dox 1 mg/kg bw i.p. day 1, normal drinking water, day 29", "result": "0.55 ± 0.12", "unit": "µg/mL"},
      {"measurement": "Ang II level", "setting": "[1]; [2]", "result": "16.00 ± 2.26", "unit": "nmol/mL/min"},
      {"measurement": "CKMB level", "setting": "[1]; [2]", "result": "121.8±3.12", "unit": "U/L"},
      {"measurement": "Fibrinogen concentration", "setting": "[1]; [2]", "result": "4.37±0.74"},
      {"measurement": "IL-6", "setting": "[1]; [2]", "result": "3.36±1.32"},
      {"measurement": "plasma renin level", "setting": "[1]; [2]", "result": "1.02 ± 0.38", "unit": "ng/mL/h"},
      {"measurement": "IL-10", "setting": "[1]; DC group: Dox single dose 1 mg/kg body weight", "result": "3.73 ± 0.50", "unit": "pg/mL"},
      {"measurement": "histopathology of kidneys", "setting": "kidneys", "result": "severe pathological lesions with tubular degeneration, tubular cast and tubular necrosis with eosinophilic infiltration"}
    ]}
  ]
}
